Experimental data published in the supplement of paper PMC11061612.

Assays:
[1] = compound: C1CC(C1)(C(=O)[O-])C(=O)[O-].N.N.[Pt+2] [Carboplatin]; details: max 10 µM
Method in brief: (§1)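 Following 24 hours at 37°C and 5% CO2, cancer cell lines in 1536-well plates with 7.5 μl DMEM/F12 or RPMI and 10% FBS were dosed for 72 hours, final DMSO typically being 0.2%. CellTiter-Glo 2.0 luminescence, scaled between blank-well and DMSO-well means, gave the viability readout. Dose responses were fitted to a two-parameter logistic curve with a non-linear mixed effects model, and the single-agent IC50 was derived from this fit.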

[2] = compound: C1CN(CCC1(C(=O)N[C@@H](CCO)C2=CC=C(C=C2)Cl)N)C3=NC=NC4=C3C=CN4 [AZD5363]; details: max 10 µM
Method in brief: as §1

[3] = compound: C=CCn1c(=O)c2cnc(Nc3ccc(N4CCN(C)CC4)cc3)nc2n1-c1cccc(C(C)(C)O)n1 [AZD1775]; details: max 3 µM
Method in brief: as §1

[4] = compound: CC(=O)Nc1cccc(-n2c(=O)n(C3CC3)c(=O)c3c(Nc4ccc(I)cc4F)n(C)c(=O)c(C)c32)c1 [Trametinib]; details: max 1 µM
Method in brief: as §1

[5] = compound: CC(=O)O[C@H]1C(=O)[C@@]2(C)[C@H]([C@H](OC(=O)c3ccccc3)[C@]3(O)C[C@H](OC(=O)[C@H](O)[C@@H](NC(=O)c4ccccc4)c4ccccc4)C(C)=C1C3(C)C)[C@]1(OC(C)=O)CO[C@@H]1C[C@@H]2O [Paclitaxel]; details: max 3 µM
Method in brief: as §1

[6] = compound: CC(=O)c1c(C)c2cnc(Nc3ccc(N4CCNCC4)cn3)nc2n(C2CCCC2)c1=O [Palbociclib]; details: max 10 µM
Method in brief: as §1

[7] = compound: CC(C)n1c(=O)n(C)c2cnc3cc(F)c(-c4ccc(OCCCN5CCCCC5)nc4)cc3c21 [AZD1390]; details: max 0.3 µM
Method in brief: as §1

[8] = compound: CC1(C)CCC(CN2CCN(c3ccc(C(=O)NS(=O)(=O)c4ccc(NCC5CCOCC5)c([N+](=O)[O-])c4)c(Oc4cnc5[nH]ccc5c4)c3)CC2)=C(c2ccc(Cl)cc2)C1 [Venetoclax]; details: max 1 µM
Method in brief: as §1

[9] = compound: CC1=C(C(=CC=C1)Cl)NC(=O)C2=CN=C(S2)NC3=CC(=NC(=N3)C)N4CCN(CC4)CCO [Dasatinib]; details: max 2 µM
Method in brief: as §1

[10] = compound: CC1=CN2[C@@H](C1)C=NC3=CC(=C(C=C3C2=O)OC)OCCCCCOC4=C(C=C5C(=C4)N=C[C@@H]6CC(=CN6C5=O)C)OC [SG3199]; details: max 0.001 µM
Method in brief: as §1

[11] = compound: CCN(CCO)CCCOc1ccc2c(Nc3cc(CC(=O)Nc4cccc(F)c4)[nH]n3)ncnc2c1 [AZD2811]; details: max 1 µM
Method in brief: as §1

[12] = compound: CCc1c2c(nc3ccc(O)cc13)-c1cc3c(c(=O)n1C2)COC(=O)[C@]3(O)CC [SN-38]; details: max 0.3 µM
Method in brief: as §1

[13] = compound: CN(C)CCCOc1ccc(-c2ccc3ncc4c(c3c2)n(C2CCOCC2)c(=O)n4C)cn1 [AZD0156]; details: max 3 µM
Method in brief: as §1

[14] = compound: CN(CC[C@H](CSC1=CC=CC=C1)NC2=C(C=C(C=C2)S(=O)(=O)NC(=O)C3=CC=C(C=C3)N4CCC(CC4)[C@H](C5=CC=CC=C5C6=CC=C(C=C6)Cl)O)S(=O)(=O)C(F)(F)F)CCO [AZD4320]; details: max 1 µM
Method in brief: as §1

[15] = compound: COc1cc(Nc2ncc3c(n2)-c2ccc(Cl)cc2C(c2c(F)cccc2OC)=NC3)ccc1C(=O)O [Alisertib]; details: max 10 µM
Method in brief: as §1

[16] = compound: COc1cc([C@@H]2c3cc4c(cc3[C@@H](O[C@@H]3O[C@@H]5CO[C@@H](C)O[C@H]5[C@H](O)[C@H]3O)[C@H]3COC(=O)[C@H]23)OCO4)cc(OC)c1O [Etoposide]; details: max 10 µM
Method in brief: as §1

[17] = compound: COc1cc2ncnc(Nc3ccc(F)c(Cl)c3)c2cc1OCCCN1CCOCC1 [Gefitinib]; details: max 10 µM
Method in brief: as §1

[18] = compound: COc1cccc(OCCCN)c1-c1cc(Nc2cnc(C#N)cn2)n[nH]1 [Prexasertib]; details: max 1 µM
Method in brief: as §1

[19] = compound: COc1cccc2c1C(=O)c1c(O)c3c(c(O)c1C2=O)C[C@@](O)(C(=O)CO)C[C@@H]3O[C@H]1C[C@H](N)[C@H](O)[C@H](C)O1 [Doxorubicin]; details: max 1 µM
Method in brief: as §1

[20] = compound: COc1nnc2ccc(N3CCC(c4ccc(OCCN5CCN(C)C(=O)[C@H]5C)cc4)CC3)nn12 [AZD5153]; details: max 1 µM
Method in brief: as §1

[21] = compound: CS(=O)(=O)CCNCc1ccc(-c2ccc3ncnc(Nc4ccc(OCc5cccc(F)c5)c(Cl)c4)c3c2)o1 [Lapatinib]; details: max 10 µM
Method in brief: as §1

[22] = compound: C[C@@H](Nc1cc(F)cc(F)c1)c1cc(C(=O)N(C)C)cc2c(=O)cc(N3CCOCC3)oc12 [AZD8186]
Method in brief: as §1

[23] = compound: C[C@@H](Oc1cc(-c2cnn(C3CCNCC3)c2)cnc1N)c1c(Cl)ccc(F)c1Cl [Crizotinib]; details: max 10 µM
Method in brief: as §1

[24] = compound: C[C@@H](c1ccc2nccn2c1)n1nnc2ncc(-c3cnn(C)c3)nc21 [Savolitinib]; details: max 1 µM
Method in brief: as §1

[25] = compound: C[C@@H]1COCCN1C2=NC(=NC(=C2)C3(CC3)[S@](=N)(=O)C)C4=C5C=CNC5=NC=C4 [AZD6738]; details: max 10 µM
Method in brief: as §1

[26] = compound: Cc1c2c(nn1C)CSCc1cc(n(C)n1)CSc1cc(c3ccccc3c1)OCCCc1c(C(=O)O)n(C)c3c-2c(Cl)ccc13 [AZD5991]; details: max 1 µM
Method in brief: as §1

[27] = compound: Cc1cc2ncnn2cc1Nc1ncc2c(n1)n(C1CCOCC1)c(=O)n2C [AZD7648]; details: max 10 µM
Method in brief: as §1

[28] = compound: Cc1nc(-c2cn3c(n2)-c2ccc(-c4cnn(C(C)(C)C(N)=O)c4)cc2OCC3)n(C(C)C)n1 [Taselisib]; details: max 10 µM
Method in brief: as §1

[29] = compound: Cn1cnc2c(F)c(Nc3ccc(Br)cc3Cl)c(C(=O)NOCCO)cc21 [Selumetinib]; details: max 10 µM
Method in brief: as §1

[30] = compound: N#Cc1cnc(Nc2cc(NC[C@H]3CNCCO3)c(C(F)(F)F)cn2)cn1 [SRA737]; details: max 10 µM
Method in brief: as §1

[31] = compound: NC1(c2ccc(-c3nc4ccn5c(=O)[nH]nc5c4cc3-c3ccccc3)cc2)CCC1 [MK-2206]; details: max 10 µM
Method in brief: as §1

[32] = compound: Nc1ccn([C@@H]2O[C@H](CO)[C@@H](O)C2(F)F)c(=O)n1 [Gemcitabine]; details: max 0.3 µM
Method in brief: as §1

[33] = compound: O=C(Nc1ccc2[nH]nc(-c3ccncc3)c2c1)[C@@H]1CCN(CC(=O)N2CCN(c3ccc(-c4ncccn4)cc3)CC2)C1; details: max 5 µM
Method in brief: as §1

[34] = compound: O=C(c1cc(Cc2n[nH]c(=O)c3ccccc23)ccc1F)N1CCN(C(=O)C2CC2)CC1 [Olaparib]; details: max 10 µM
Method in brief: as §1

[35] = compound: O=c1[nH]cc(F)c(=O)[nH]1 [5-Fluorouracil]; details: max 20 µM
Method in brief: as §1

[36] = compound: C1CN(CCC1(C(=O)N[C@@H](CCO)C2=CC=C(C=C2)Cl)N)C3=NC=NC4=C3C=CN4 [Capivasertib]; details: max 10 µM
Method in brief: as §1

Cell Line	IC50, cell viability 72 h [1]	IC50, cell viability 72 h [2]	IC50, cell viability 72 h [3]	IC50, cell viability 72 h [4]	IC50, cell viability 72 h [5]	IC50, cell viability 72 h [6]	IC50, cell viability 72 h [7]	IC50, cell viability 72 h [8]	IC50, cell viability 72 h [9]	IC50, cell viability 72 h [10]	IC50, cell viability 72 h [11]	IC50, cell viability 72 h [12]	IC50, cell viability 72 h [13]	IC50, cell viability 72 h [14]	IC50, cell viability 72 h [15]	IC50, cell viability 72 h [16]	IC50, cell viability 72 h [17]	IC50, cell viability 72 h [18]	IC50, cell viability 72 h [19]	IC50, cell viability 72 h [20]	IC50, cell viability 72 h [21]	IC50, cell viability 72 h ([22]; max 10 µM)	IC50, cell viability 72 h [23]	IC50, cell viability 72 h [24]	IC50, cell viability 72 h [25]	IC50, cell viability 72 h [26]	IC50, cell viability 72 h [27]	IC50, cell viability 72 h [28]	IC50, cell viability 72 h [29]	IC50, cell viability 72 h [30]	IC50, cell viability 72 h [31]	IC50, cell viability 72 h [32]	IC50, cell viability 72 h [33]	IC50, cell viability 72 h [34]	IC50, cell viability 72 h [35]	IC50, cell viability 72 h [36]	IC50, cell viability 72 h ([22]; max 3 µM)
KARPAS-620 (Plasma Cell Myeloma)	> 10000 nM	1620 nM	1480 nM	929 nM	6.98 nM	> 10000 nM	> 300 nM	84.6 nM	> 2000 nM	> 1 nM	> 1000 nM	> 300 nM	> 3000 nM	5.91 nM	10000 nM	> 10000 nM	> 10000 nM	80.4 nM	> 1000 nM	167 nM	> 10000 nM	> 10000 nM	4750 nM	> 1000 nM	> 10000 nM	59.9 nM	> 10000 nM	501 nM	5720 nM	> 10000 nM	2230 nM	> 300 nM	> 5000 nM	> 10000 nM	> 20000 nM		
TGBC24TKB (Biliary Tract Carcinoma)			815 nM	933 nM		> 10000 nM	> 300 nM	> 1000 nM	> 2000 nM	> 1 nM	923 nM	> 300 nM	> 3000 nM	> 1000 nM	1860 nM		> 10000 nM	49.4 nM	> 1000 nM	665 nM	8010 nM		9900 nM	> 1000 nM	7400 nM	> 1000 nM	> 10000 nM	561 nM	> 10000 nM		> 10000 nM			> 10000 nM		> 10000 nM	> 3000 nM
SW780 (Bladder Carcinoma)			> 3000 nM	> 1000 nM		> 10000 nM	> 300 nM	> 1000 nM	> 2000 nM	> 1 nM	> 1000 nM	247 nM	> 3000 nM	> 1000 nM	> 10000 nM		> 10000 nM	> 1000 nM	> 1000 nM	> 1000 nM	> 10000 nM		> 10000 nM	> 1000 nM	> 10000 nM	> 1000 nM	> 10000 nM	> 10000 nM	> 10000 nM		> 10000 nM			> 10000 nM		> 10000 nM	> 3000 nM
IGR-1 (Melanoma)			> 3000 nM	> 1000 nM		> 10000 nM	> 300 nM	> 1000 nM	> 2000 nM	> 1 nM	> 1000 nM	> 300 nM	> 3000 nM	> 1000 nM	> 10000 nM		> 10000 nM	617 nM	> 1000 nM	> 1000 nM	8830 nM		6250 nM	> 1000 nM	> 10000 nM	> 1000 nM	> 10000 nM	> 10000 nM	> 10000 nM					> 10000 nM		> 10000 nM	> 3000 nM
RH-1 (Ewing's Sarcoma)			95.1 nM	> 1000 nM		> 10000 nM	> 300 nM	> 1000 nM	> 2000 nM	> 1 nM	22.6 nM	4.35 nM	> 3000 nM	830 nM	39 nM		> 10000 nM	18.4 nM	56.1 nM	> 1000 nM	> 10000 nM		2250 nM	> 1000 nM	2000 nM	550 nM	> 10000 nM	6260 nM	> 10000 nM		> 10000 nM			> 10000 nM		> 10000 nM	> 3000 nM
HPAC (Pancreatic Carcinoma)			1500 nM	22.7 nM		> 10000 nM	> 300 nM	> 1000 nM	> 2000 nM	> 1 nM	> 1000 nM	> 300 nM	> 3000 nM	> 1000 nM	3960 nM		> 10000 nM	81.6 nM	> 1000 nM	579 nM	> 10000 nM		6650 nM	> 1000 nM	> 10000 nM	> 1000 nM	> 10000 nM	2380 nM	3160 nM					> 10000 nM		> 10000 nM	> 3000 nM
